Source: the NIST ThermoML archive (doi:10.1016/j.jct.2018.08.013)
Several values for one entry are separate records, joined by “and”; a condition that tells them apart may be missing. Equal values may be shown once.

Tests used:
[1] = xn = mol fraction of the nth substance listed; conditions: 298 K; 100 kPa; Crystal of intercomponent compound 1; X-ray diffraction; x2 = 0.493
[2] = specific heat capacity at constant pressure; xn = mol fraction of the nth substance listed; conditions: 100 kPa, Crystal of intercomponent compound 1, x2 = 0.493

[S] [sulfur] + [Ga]
Conditions	mass density [kg/m3]
[1]	3910

[2]
Conditions	specific heat capacity
18.16 K, relaxation calorimetry	12.05 J/K/kg
18.18 K, relaxation calorimetry	12.12 J/K/kg
20.17 K, relaxation calorimetry	16.52 J/K/kg
20.2 K, relaxation calorimetry	16.6 J/K/kg
22.19 K, relaxation calorimetry	21.61 J/K/kg
22.22 K, relaxation calorimetry	21.71 J/K/kg and 21.72 J/K/kg
24.21 K, relaxation calorimetry	27.33 J/K/kg
24.24 K, relaxation calorimetry	27.43 J/K/kg and 27.44 J/K/kg
26.24 K, relaxation calorimetry	33.49 J/K/kg
26.26 K, relaxation calorimetry	33.58 J/K/kg
28.24 K, relaxation calorimetry	39.83 J/K/kg
28.26 K, relaxation calorimetry	39.94 J/K/kg
28.27 K, relaxation calorimetry	39.95 J/K/kg
30.29 K, relaxation calorimetry	46.52 J/K/kg and 46.51 J/K/kg
35.28 K, relaxation calorimetry	63.34 J/K/kg
35.34 K, relaxation calorimetry	63.61 J/K/kg and 63.51 J/K/kg
40.32 K, relaxation calorimetry	80.08 J/K/kg
40.39 K, relaxation calorimetry	80.21 J/K/kg
40.4 K, relaxation calorimetry	80.32 J/K/kg
45.38 K, relaxation calorimetry	96.1 J/K/kg
45.44 K, relaxation calorimetry	96.06 J/K/kg
45.46 K, relaxation calorimetry	96.26 J/K/kg
50.44 K, relaxation calorimetry	111.7 J/K/kg
50.47 K, relaxation calorimetry	111.6 J/K/kg
50.51 K, relaxation calorimetry	111.7 J/K/kg
55.47 K, relaxation calorimetry	126.24 J/K/kg
55.51 K, relaxation calorimetry	125.95 J/K/kg
55.55 K, relaxation calorimetry	126.24 J/K/kg
60.51 K, relaxation calorimetry	140.09 J/K/kg
60.55 K, relaxation calorimetry	139.99 J/K/kg
60.58 K, relaxation calorimetry	139.99 J/K/kg
65.57 K, relaxation calorimetry	154.14 J/K/kg
65.59 K, relaxation calorimetry	154.04 J/K/kg
65.63 K, relaxation calorimetry	154.04 J/K/kg
70.62 K, relaxation calorimetry	167.6 J/K/kg
70.63 K, relaxation calorimetry	167.6 J/K/kg
70.66 K, relaxation calorimetry	167.5 J/K/kg
75.65 K, relaxation calorimetry	180.57 J/K/kg
75.68 K, relaxation calorimetry	180.86 J/K/kg
75.7 K, relaxation calorimetry	180.47 J/K/kg
80.7 K, relaxation calorimetry	194.32 J/K/kg
80.73 K, relaxation calorimetry	194.42 J/K/kg
80.74 K, relaxation calorimetry	194.32 J/K/kg
85.74 K, relaxation calorimetry	207.39 J/K/kg
85.77 K, relaxation calorimetry	207.39 J/K/kg
85.78 K, relaxation calorimetry	207.39 J/K/kg
90.77 K, relaxation calorimetry	220.55 J/K/kg
90.8 K, relaxation calorimetry	220.26 J/K/kg and 220.45 J/K/kg
95.75 K, relaxation calorimetry	232.24 J/K/kg
95.79 K, relaxation calorimetry	231.95 J/K/kg
95.82 K, relaxation calorimetry	231.85 J/K/kg
100.8 K, relaxation calorimetry	243.64 J/K/kg
100.86 K, relaxation calorimetry	242.85 J/K/kg
100.91 K, relaxation calorimetry	243.05 J/K/kg
106.88 K, relaxation calorimetry	257.1 J/K/kg and 257.39 J/K/kg
107.03 K, relaxation calorimetry	256.21 J/K/kg
113.66 K, relaxation calorimetry	272.42 J/K/kg
113.82 K, relaxation calorimetry	273.11 J/K/kg
113.94 K, relaxation calorimetry	271.54 J/K/kg
120.64 K, relaxation calorimetry	286.47 J/K/kg
120.83 K, relaxation calorimetry	286.96 J/K/kg
120.89 K, relaxation calorimetry	285.1 J/K/kg
127.82 K, relaxation calorimetry	298.56 J/K/kg
127.84 K, relaxation calorimetry	298.36 J/K/kg
134.78 K, relaxation calorimetry	310.93 J/K/kg
134.8 K, relaxation calorimetry	310.34 J/K/kg
134.81 K, relaxation calorimetry	310.25 J/K/kg
141.61 K, relaxation calorimetry	324 J/K/kg
141.75 K, relaxation calorimetry	322.43 J/K/kg
141.83 K, relaxation calorimetry	321.94 J/K/kg
148.61 K, relaxation calorimetry	333.53 J/K/kg
148.72 K, relaxation calorimetry	332.15 J/K/kg
148.84 K, relaxation calorimetry	330.48 J/K/kg
155.54 K, relaxation calorimetry	342.37 J/K/kg
155.64 K, relaxation calorimetry	340.7 J/K/kg
155.72 K, relaxation calorimetry	339.33 J/K/kg
162.61 K, relaxation calorimetry	350.82 J/K/kg
162.66 K, relaxation calorimetry	349.74 J/K/kg
162.73 K, relaxation calorimetry	349.64 J/K/kg
169.57 K, relaxation calorimetry	360.25 J/K/kg
169.65 K, relaxation calorimetry	358.19 J/K/kg
169.72 K, relaxation calorimetry	359.07 J/K/kg
176.58 K, relaxation calorimetry	367.72 J/K/kg
176.67 K, relaxation calorimetry	367.72 J/K/kg
176.69 K, relaxation calorimetry	362.51 J/K/kg
183.46 K, relaxation calorimetry	377.05 J/K/kg
183.56 K, relaxation calorimetry	375.87 J/K/kg
183.6 K, relaxation calorimetry	370.67 J/K/kg
190.49 K, relaxation calorimetry	383.83 J/K/kg
190.59 K, relaxation calorimetry	383.53 J/K/kg
190.65 K, relaxation calorimetry	378.13 J/K/kg
197.48 K, relaxation calorimetry	388.94 J/K/kg
197.53 K, relaxation calorimetry	389.63 J/K/kg
197.63 K, relaxation calorimetry	385.2 J/K/kg
204.39 K, relaxation calorimetry	394.64 J/K/kg
204.41 K, relaxation calorimetry	396.21 J/K/kg
204.53 K, relaxation calorimetry	392.18 J/K/kg
211.42 K, relaxation calorimetry	400.83 J/K/kg
211.46 K, relaxation calorimetry	401.71 J/K/kg
211.56 K, relaxation calorimetry	397.19 J/K/kg
218.3 K, relaxation calorimetry	405.64 J/K/kg
218.34 K, relaxation calorimetry	407.41 J/K/kg
218.45 K, relaxation calorimetry	402.99 J/K/kg
225.38 K, relaxation calorimetry	410.35 J/K/kg and 412.32 J/K/kg
225.51 K, relaxation calorimetry	408.68 J/K/kg
232.24 K, relaxation calorimetry	414.68 J/K/kg and 416.64 J/K/kg
232.38 K, relaxation calorimetry	412.81 J/K/kg
239.31 K, relaxation calorimetry	418.61 J/K/kg and 420.57 J/K/kg
239.44 K, relaxation calorimetry	416.94 J/K/kg
246.17 K, relaxation calorimetry	422.44 J/K/kg
246.31 K, relaxation calorimetry	420.96 J/K/kg
253.25 K, relaxation calorimetry	426.56 J/K/kg
253.26 K, relaxation calorimetry	424.99 J/K/kg
253.37 K, relaxation calorimetry	424.7 J/K/kg
260.11 K, relaxation calorimetry	428.53 J/K/kg and 430.1 J/K/kg
260.22 K, relaxation calorimetry	427.94 J/K/kg
260.51 K, Extra sensitive DSC	429.81 J/K/kg
263.12 K, Extra sensitive DSC	432.26 J/K/kg
265.73 K, Extra sensitive DSC	432.66 J/K/kg
267.18 K, relaxation calorimetry	432.16 J/K/kg and 433.25 J/K/kg
267.28 K, relaxation calorimetry	431.28 J/K/kg
268.33 K, Extra sensitive DSC	434.33 J/K/kg
270.07 K, Extra sensitive DSC	435.41 J/K/kg
273.54 K, Extra sensitive DSC	436.78 J/K/kg
274.03 K, relaxation calorimetry	435.6 J/K/kg and 437.27 J/K/kg
274.12 K, relaxation calorimetry	434.33 J/K/kg
276.15 K, Extra sensitive DSC	437.37 J/K/kg
279.62 K, Extra sensitive DSC	439.04 J/K/kg
281.12 K, relaxation calorimetry	440.32 J/K/kg
281.13 K, relaxation calorimetry	440.12 J/K/kg
281.19 K, relaxation calorimetry	438.35 J/K/kg
283.09 K, Extra sensitive DSC	440.42 J/K/kg
285.7 K, Extra sensitive DSC	441.4 J/K/kg
287.94 K, relaxation calorimetry	442.87 J/K/kg
287.95 K, relaxation calorimetry	442.09 J/K/kg
288.02 K, relaxation calorimetry	441.2 J/K/kg
289.17 K, Extra sensitive DSC	442.77 J/K/kg
292.64 K, Extra sensitive DSC	444.15 J/K/kg
295 K, relaxation calorimetry	443.07 J/K/kg and 444.35 J/K/kg
295.08 K, relaxation calorimetry	443.46 J/K/kg
295.25 K, Extra sensitive DSC	444.64 J/K/kg
297.85 K, Extra sensitive DSC	445.72 J/K/kg
300.45 K, Extra sensitive DSC	446.61 J/K/kg
301.99 K, relaxation calorimetry	450.73 J/K/kg
302 K, relaxation calorimetry	450.83 J/K/kg
302.09 K, relaxation calorimetry	445.23 J/K/kg
303.06 K, Extra sensitive DSC	447.88 J/K/kg
305.66 K, Extra sensitive DSC	448.77 J/K/kg
308.26 K, Extra sensitive DSC	449.75 J/K/kg
310.87 K, Extra sensitive DSC	450.44 J/K/kg
313.47 K, Extra sensitive DSC	451.52 J/K/kg
315.21 K, Extra sensitive DSC	452.11 J/K/kg
317.81 K, Extra sensitive DSC	452.3 J/K/kg
320.41 K, Extra sensitive DSC	453.09 J/K/kg
323.02 K, Extra sensitive DSC	453.29 J/K/kg
325.62 K, Extra sensitive DSC	454.17 J/K/kg
328.23 K, Extra sensitive DSC	455.45 J/K/kg
329.96 K, Extra sensitive DSC	455.35 J/K/kg
332.56 K, Extra sensitive DSC	455.84 J/K/kg
335.17 K, Extra sensitive DSC	456.53 J/K/kg
337.77 K, Extra sensitive DSC	457.22 J/K/kg
340.38 K, Extra sensitive DSC	458.2 J/K/kg
342.98 K, Extra sensitive DSC	459.18 J/K/kg
345.58 K, Extra sensitive DSC	459.28 J/K/kg
348.19 K, Extra sensitive DSC	460.46 J/K/kg
350.79 K, Extra sensitive DSC	461.15 J/K/kg
353.39 K, Extra sensitive DSC	460.75 J/K/kg
356 K, Extra sensitive DSC	461.93 J/K/kg
358.6 K, Extra sensitive DSC	462.72 J/K/kg
